Measurements taken from US7419790B2, “Sodium-independent transporter carrying acidic amino acid and its gene” (J-Pharma Co., Ltd, priority 2002, dated 2008).

T1: AGT1-4F2hc fusion protein (Mus musculus, UniProt P10852+Q91WN3)
T1 sequence (Q91WN3+P10852 with tags, fused parts or gaps): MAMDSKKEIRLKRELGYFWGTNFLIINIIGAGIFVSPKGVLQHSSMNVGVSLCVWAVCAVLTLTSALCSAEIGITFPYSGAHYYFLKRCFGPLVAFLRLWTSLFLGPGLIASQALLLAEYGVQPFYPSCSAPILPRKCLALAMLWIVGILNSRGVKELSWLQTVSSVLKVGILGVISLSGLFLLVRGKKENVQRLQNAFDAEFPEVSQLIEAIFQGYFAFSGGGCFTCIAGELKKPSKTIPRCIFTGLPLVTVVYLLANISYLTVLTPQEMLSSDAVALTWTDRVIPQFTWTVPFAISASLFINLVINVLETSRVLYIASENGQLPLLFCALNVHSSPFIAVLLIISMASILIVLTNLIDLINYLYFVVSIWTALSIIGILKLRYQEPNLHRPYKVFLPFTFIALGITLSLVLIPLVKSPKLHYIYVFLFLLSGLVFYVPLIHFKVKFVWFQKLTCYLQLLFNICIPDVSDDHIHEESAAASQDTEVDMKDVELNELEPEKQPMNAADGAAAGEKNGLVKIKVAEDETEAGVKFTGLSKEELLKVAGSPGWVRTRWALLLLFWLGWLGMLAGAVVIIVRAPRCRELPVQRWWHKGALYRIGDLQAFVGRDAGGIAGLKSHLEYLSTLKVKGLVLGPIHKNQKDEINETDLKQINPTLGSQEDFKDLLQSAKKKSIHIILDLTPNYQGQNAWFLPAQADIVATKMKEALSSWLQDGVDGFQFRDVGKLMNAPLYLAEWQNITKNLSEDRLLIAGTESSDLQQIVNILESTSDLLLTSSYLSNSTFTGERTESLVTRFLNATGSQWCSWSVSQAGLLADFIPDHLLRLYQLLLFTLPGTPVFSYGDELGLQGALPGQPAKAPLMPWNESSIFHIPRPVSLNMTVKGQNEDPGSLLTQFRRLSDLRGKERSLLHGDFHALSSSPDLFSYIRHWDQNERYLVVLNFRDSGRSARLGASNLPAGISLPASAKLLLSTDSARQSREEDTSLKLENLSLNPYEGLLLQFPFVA

T2: AGT1-rBAT fusion protein (Mus musculus, UniProt Q91WN3+Q91WV7)
T2 construct: expressed in transfected cells; host or cells: oocyte injected with AGT1-rBAT fusion protein gene cRNA
T2 sequence (Q91WN3+Q91WV7 with tags, fused parts or gaps): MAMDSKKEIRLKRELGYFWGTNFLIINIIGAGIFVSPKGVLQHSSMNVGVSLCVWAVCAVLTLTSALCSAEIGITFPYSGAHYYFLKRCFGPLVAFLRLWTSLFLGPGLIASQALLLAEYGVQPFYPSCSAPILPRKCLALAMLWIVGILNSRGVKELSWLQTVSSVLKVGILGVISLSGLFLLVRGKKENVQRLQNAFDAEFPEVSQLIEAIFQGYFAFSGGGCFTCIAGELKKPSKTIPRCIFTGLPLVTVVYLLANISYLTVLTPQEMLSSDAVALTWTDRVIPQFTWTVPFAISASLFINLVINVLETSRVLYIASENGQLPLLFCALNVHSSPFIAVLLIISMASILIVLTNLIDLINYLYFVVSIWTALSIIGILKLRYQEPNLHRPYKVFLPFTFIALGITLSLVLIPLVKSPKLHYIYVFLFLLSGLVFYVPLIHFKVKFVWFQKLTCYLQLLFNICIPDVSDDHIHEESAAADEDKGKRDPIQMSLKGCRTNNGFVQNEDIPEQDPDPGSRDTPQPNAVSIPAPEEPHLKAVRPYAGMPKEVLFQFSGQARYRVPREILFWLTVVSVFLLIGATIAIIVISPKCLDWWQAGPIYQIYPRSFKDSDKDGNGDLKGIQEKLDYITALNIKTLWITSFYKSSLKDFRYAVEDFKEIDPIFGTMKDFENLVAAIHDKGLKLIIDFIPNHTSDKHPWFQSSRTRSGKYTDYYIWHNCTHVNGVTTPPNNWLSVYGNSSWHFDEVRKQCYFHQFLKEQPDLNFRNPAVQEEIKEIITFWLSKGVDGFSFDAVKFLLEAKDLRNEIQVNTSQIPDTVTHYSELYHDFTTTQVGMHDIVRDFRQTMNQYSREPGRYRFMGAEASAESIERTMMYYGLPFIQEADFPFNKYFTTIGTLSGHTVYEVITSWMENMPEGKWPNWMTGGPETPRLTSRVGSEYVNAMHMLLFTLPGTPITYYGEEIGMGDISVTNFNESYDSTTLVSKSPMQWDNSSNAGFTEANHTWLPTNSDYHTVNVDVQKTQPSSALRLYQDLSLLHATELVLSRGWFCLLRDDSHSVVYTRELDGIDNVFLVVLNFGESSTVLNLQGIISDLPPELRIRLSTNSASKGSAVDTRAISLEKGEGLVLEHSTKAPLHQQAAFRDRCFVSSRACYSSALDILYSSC


How the values were obtained:
[1] = molecular target: T1, AGT1-4F2hc fusion protein; experiment: Inhibition of 14C-aspartic acid uptake by added amino acids and analogues, oocytes expressing AGT1-4F2hc; format: cell-based; conditions: 2 mM non-labeled compound, 14C-aspartic acid 20 μM, sodium-free uptake solution
Protocol: However, a sodium-free uptake solution was used and the uptake ^14C-aspartic acid (20 μM) was measured in the presence and absence of 2 mM of various compounds (non-labeled).

[2] = molecular target: T1, AGT1-4F2hc fusion protein; experiment: Uptake of radio-labeled amino acids by oocytes expressing AGT1-4F2hc; format: cell-based; conditions: oocyte injected with AGT1-4F2hc cRNA, 14C compound as substrate
Excerpt: With regard to a substrate, various compounds which were labeled with radioactivity were used instead of ^14C-aspartic acid.

[3] = molecular target: T1, AGT1-4F2hc fusion protein; experiment: Michaelis-Menten kinetic analysis of substrate uptake by oocytes expressing AGT1-4F2hc; conditions: AGT1-4F2hc in oocytes; ratio to Vmax value of L-aspartic acid; mean value ± standard error
Protocol: (§1) The oocyte were allowed to stand for 30 minutes in a sodium-free uptake solution (100 mM choline chloride, 2 mM potassium chloride, 1.8 mM calcium chloride, 1 mM magnesium chloride and 5 mM HEPES; pH 7.4) containing ^14 C-aspartic acid (20 μM) as a substrate and an uptake rate of the substrate was measured by the count of radioactivity incorporated into the cells.
(§2) The Michaelis-Menten kinetic analysis was conducted by investigating the change in the ratio of uptake of aspartic acid by the difference in the substrate aspartic acid concentration.
(§3) The aspartic acid uptake experiment was carried according to the method mentioned in the above Example 2(2) using the oocyte into which a cRNA of a gene of a fusion protein of AGT1 with 4F2hc or with rBAT (AGT1-4F2hc or AGT1-rBAT) was injected.
(§4) The Michaelis-Menten kinetic analysis was similarly carried out in a fusion protein of AGT1 with 4F2hc (AGT1-4F2hc) in glutamic acid and Km value and Vmax value were calculated.
N[C@@H](CCC(=O)O)C(=O)O = experiment: cells, lysate or membranes; conditions: other: substrate transport by AGT1-4F2hc in Xenopus oocytes, sodium-free uptake solution; mean value ± standard error; pH 7.4
Protocol: as §1, §2, §3, §4

AGT1-rBAT fusion protein = molecular target: T2, AGT1-rBAT fusion protein; experiment: Uptake of 14C-aspartic acid by oocytes expressing AGT1-rBAT; format: cell-based; conditions: oocyte injected with AGT1-rBAT cRNA; 14C-aspartic acid 20 μM, 30 minutes, compared with water-injected control
[4] = substrate: N[C@@H](CC(=O)O)C(=O)O; experiment: cells, lysate or membranes; conditions: other: AGT1-rBAT in Xenopus oocytes; pH 7.4

| Molecule | effect on uptake of 14C-aspartic acid mediated by AGT1-4F2hc (cis-inhibition) [1] | other results |
| --- | --- | --- |
| γ-aminoisobutyric acid | did no affect |  |
| N[C@@H](CS(=O)(=O)O)C(=O)O [L-cysteate] | strongly inhibited |  |
| N[C@@H](CSSC[C@H](N)C(=O)O)C(=O)O [cystine] | did no affect |  |
| N[C@H](CC(=O)O)C(=O)O [D-aspartic acid] | did no affect |  |
| N[C@@H](CS)C(=O)O.O=S(=O)(O)O [L-cysteine sulfate] | strongly inhibited |  |
| N[C@@H](CCS(=O)(=O)O)C(=O)O [L-homocysteate] | no inhibition effect |  |
| CC(C)[C@H]1CN[C@H](C(=O)O)[C@H]1CC(=O)O [dihydrokainate] | no inhibition effect |  |
| NC1(C(=O)O)CC2CCC1C2 (stereo not drawn) [2-amino-2-norbornane-carboxylic acid] | did no affect |  |
| N[C@H](CCC(=O)O)C(=O)O [D-glutamic acid] | did no affect |  |
| O=C(O)[C@@H]1CN[C@@H](C(=O)O)C1 (relative stereo) [L-trans-pyrrolidine-2,4-dicarboxylate] | no inhibition effect |  |
| N[C@@H](CCC(=O)O)C(=O)O [L-Glutamic acid] | significant cis-inhibiting effect | uptake of radio-labeled substrate into the oocyte [2]: substantial uptake; Vmax [3]: 0.63 ± 0.10 |
| N[C@@H](CS)C(=O)O [cysteine] | significant cis-inhibiting effect |  |
| NC(C(=O)O)C(O)C(=O)O (stereo not drawn) [threo-β-hydroxyaspartate] | strongly inhibited |  |
| N[C@@H](CCCC(=O)O)C(=O)O [L-α-aminoadipate] | no inhibition effect |  |
| AGT1-4F2hc fusion protein (Mus musculus) |  | Km (N[C@@H](CCC(=O)O)C(=O)O): 21.8 ± 6.5 µM |
| N[C@@H](CC(=O)O)C(=O)O [L-Aspartic acid] | significant cis-inhibiting effect | uptake of radio-labeled substrate into the oocyte ([2]; listed as L-aspartic acid): substantial uptake; uptake of radio-labeled substrate into the oocyte ([2]; listed as aspartic acid): higher uptake; Vmax [3]: (1.00); uptake of aspartic acid into the oocyte (AGT1-rBAT fusion protein): higher uptake |
| N[C@@H](COS(=O)(=O)O)C(=O)O [L-serine-O-sulfate] | strongly inhibited |  |
| AGT1-rBAT fusion protein (Mus musculus) (protein) MAMDSKKEIRLKRELGYFWGTNFLIINIIGAGIFVSPKGVLQHSSMNVGVSLCVWAVCAVLTLTSALCSAEIGITFPYSGAHYYFLKRCFGPLVAFLRLWTSLFLGPGLIASQALLLAEYGVQPFYPSCSAPILPRKCLALAMLWIVGILNSRGVKELSWLQTVSSVLKVGILGVISLSGLFLLVRGKKENVQRLQNAFDAEFPEVSQLIEAIFQGYFAFSGGGCFTCIAGELKKPSKTIPRCIFTGLPLVTVVYLLANISYLTVLTPQEMLSSDAVALTWTDRVIPQFTWTVPFAISASLFINLVINVLETSRVLYIASENGQLPLLFCALNVHSSPFIAVLLIISMASILIVLTNLIDLINYLYFVVSIWTALSIIGILKLRYQEPNLHRPYKVFLPFTFIALGITLSLVLIPLVKSPKLHYIYVFLFLLSGLVFYVPLIHFKVKFVWFQKLTCYLQLLFNICIPDVSDDHIHEESAAADEDKGKRDPIQMSLKGCRTNNGFVQNEDIPEQDPDPGSRDTPQPNAVSIPAPEEPHLKAVRPYAGMPKEVLFQFSGQARYRVPREILFWLTVVSVFLLIGATIAIIVISPKCLDWWQAGPIYQIYPRSFKDSDKDGNGDLKGIQEKLDYITALNIKTLWITSFYKSSLKDFRYAVEDFKEIDPIFGTMKDFENLVAAIHDKGLKLIIDFIPNHTSDKHPWFQSSRTRSGKYTDYYIWHNCTHVNGVTTPPNNWLSVYGNSSWHFDEVRKQCYFHQFLKEQPDLNFRNPAVQEEIKEIITFWLSKGVDGFSFDAVKFLLEAKDLRNEIQVNTSQIPDTVTHYSELYHDFTTTQVGMHDIVRDFRQTMNQYSREPGRYRFMGAEASAESIERTMMYYGLPFIQEADFPFNKYFTTIGTLSGHTVYEVITSWMENMPEGKWPNWMTGGPETPRLTSRVGSEYVNAMHMLLFTLPGTPITYYGEEIGMGDISVTNFNESYDSTTLVSKSPMQWDNSSNAGFTEANHTWLPTNSDYHTVNVDVQKTQPSSALRLYQDLSLLHATELVLSRGWFCLLRDDSHSVVYTRELDGIDNVFLVVLNFGESSTVLNLQGIISDLPPELRIRLSTNSASKGSAVDTRAISLEKGEGLVLEHSTKAPLHQQAAFRDRCFVSSRACYSSALDILYSSC |  | Km [4]: 20.1 ± 6.1 µM |
